Where a SMILES comes first, the peptide text is derived from it. [ ]: non-standard residue; d: D form.
What was measured:
platelets [1] = assay: thrombin-induced calcium mobilization in platelets; assay type: cell-based; conditions: preincubation of platelets with 10 nM (D)-DT2
Method: (§1) We tested the inhibitory effects of (D)-DT2 and DT3 on PKG and its effects on intact cells. […] It should be noted that the measured PKG concentration is about 7 µM in platelets and 0.1 – 0.5 µM in all other tested cells.

PKG II = assay: inhibition of PKG II; assay type: biochemical; conditions: up to 1 µM (D)-DT2
Method: as §1

platelets [2] = assay: thrombin-induced platelet aggregation; assay type: cell-based; conditions: preincubation of platelets with 10 nM (D)-DT2
Method: as §1

PKG = PKG activity in broken platelet cell experiments; assay type: biochemical; conditions: broken platelet cells, measured PKG concentration about 7 µM in platelets
Method: as §1

PKA [3] = assay: PKA activity in broken platelet cell experiments; assay type: biochemical; conditions: broken platelet cells; at these concentrations (starting at 5 µM, complete PKG inhibition at 20 µM)
Method: as §1

PKA [4] = assay: inhibition of PKA; assay type: biochemical; conditions: up to 1 µM (D)-DT2
platelets [5] = assay: platelet function versus PKG activity; assay type: cell-based
Method: as §1

platelets [6] = assay: aggregation of collagen-stimulated platelets; assay type: cell-based; conditions: preincubation of platelets with 10 nM (D)-DT2
Method: as §1

platelets [7] = assay: calcium mobilization in collagen-stimulated platelets; assay type: cell-based; conditions: preincubation of platelets with 10 nM (D)-DT2
Method: as §1

PKG in intact cells = conditions: ref [1]; cited from earlier work
Source text: Cellular cGMP effects can be mediated by a number of effectors including cGMP-dependent protein kinases (PKGs), cGMP-stimulated phosphodiesterase (PDE2), cGMP-inhibited phosphodiesterase (PDE3), and cGMP-gated channels. Pharmacological inhibitors of PKG are often used to discriminate between these diverse cGMP effects. Currently used PKG inhibitors can be divided into three classes: cyclic nucleotide binding site inhibitors like Rp-phosphorothioate analogs, ATP binding site inhibitors like KT5823, and substrate binding site inhibitors like the recently described DT-oligopeptides. However, seve ...

Row | SMILES | effect on thrombin-induced calcium mobilization (platelets [1]) | inhibition of PKG II (PKG II) | effect on thrombin-induced platelet aggregation (platelets [2]) | concentration giving complete inhibition of PKG activity (PKG; complete inhibition) [µM] | concentration at which PKG inhibition starts (PKG) [µM] | inhibition of PKA activity (PKA [3]) | inhibition of PKA (PKA [4]) | correlation of effects on platelet function with PKG activity (platelets [5]) | effect on aggregation in collagen-stimulated platelets (platelets [6]) | effect on calcium mobilization in collagen-stimulated platelets (platelets [7]) | PKG inhibition in intact cells (PKG in intact cells)
1 | CC(C)C[C@@H](NC(=O)[C@H]1CCCN1C(=O)[C@H]1CCCN1C(=O)[C@@H](CCCNC(=N)N)NC(=O)[C@@H](CCCNC(=N)N)NC(=O)[C@@H](CCCNC(=N)N)NC(=O)[C@@H](CCC(N)=O)NC(=O)[C@@H](CCCNC(=N)N)NC(=O)[C@@H](CCCNC(=N)N)NC(=O)[C@@H](CCCCN)NC(=O)[C@@H](CCCCN)NC(=O)[C@@H](CCCNC(=N)N)NC(=O)CNC(=O)[C@H](N)Cc1ccc(O)cc1)C(=O)N[C@H](CCCNC(=N)N)C(=O)N[C@H](CCCCN)C(=O)N[C@H](CCCCN)C(=O)N[C@H](CCCCN)C(=O)N[C@H](CCCCN)C(=O)N[C@H](CCCCN)C(=O)N[C@H](Cc1c[nH]cn1)C(N)=O [(D)-DT2] (H-[dY]G[dR][dK][dK][dR][dR][dQ][dR][dR][dR][dP][dP][dL][dR][dK][dK][dK][dK][dK][dH]-NH2; N-terminus and C-terminus assumed) | strongly inhibited | did not inhibit | strongly inhibited | 20 | 5 | observed inhibition of PKA activity | did not inhibit | did not correlate with PKG activity | potentiated | potentiated | 
2 | COC(=O)[C@@]1(OC)C[C@H]2O[C@]1(C)n1c3ccccc3c3c4c(c5c6ccccc6n2c5c31)C(=O)N(C)C4 [KT5823] |  |  |  |  |  |  |  |  |  |  | no PKG inhibition

Source: publication PMC3363220, “Specific PKG inhibitors: do they really exist?” (BMC Pharmacology, 2011)
